Assay results from article PMC9549282, “Transcriptome analysis of megalurothrips usitatus (Bagnall) identifies olfactory genes with ligands binding characteristics of MusiOBP1 and MusiCSP1” (Frontiers in Physiology, 2022).

Assays:
[1] = biological target: T1, MusiCSP1; assay: fluorescent probe titration, Scatchard; assay type: binding, Megalurothrips usitatus; conditions: excitation 337 nm; labelled compound (fluorescent probe)
T1 construct: pET32a(+) BamHI/HindIII fusion (about 31 kDa) in E. coli BL21(DE3), Ni-NTA, His-tag fusion cut off with enterokinase

[2] = biological target: T1, MusiCSP1; assay: 1-NPN fluorescence displacement; assay type: binding, Megalurothrips usitatus; conditions: 2 μM protein, 2 μM 1-NPN; ligand 2-16 μM; competitive with 1-NPN
From the text: 1-NPN fluorescence displacement on MusiCSP1

## c1ccc(Nc2cccc3ccccc23)cc1 [1-NPN]
[1]
  Kd: 8.36 µM

## O=CCCc1ccccc1 [3-Benzene propanal]
[2]
  Ki: 38.6 µM

## CCCCCC(=O)CC [3-Octanone]
[2]
  Ki: 59.6 µM

## Cc1occc(=O)c1O [3-hydroxy-2-Methyl-4-pvrone]
[2]
  Ki: 25.4 µM

## CC(C)=CCC/C(C)=C/CO [Geraniol]
[2]
  Ki: 36.5 µM

## CC(C)=CCC/C(C)=C\CO [Nerol]
[2]
  Ki: 80 µM

## Cc1ccccc1C [O-Xylene]
[2]
  Ki: 31 µM

## COc1ccc(C=O)cc1 [P-Anisaldehyde]
[2]
  Ki: 42.8 µM

## C=C1CC/C=C(\C)CC[C@@H]2[C@@H]1CC2(C)C [β-Caryophyllene]
[2]
  Ki: 121 µM

## CC(C)=CCCC(C)CCO (stereo not drawn) [β-citronellol]
[2]
  Ki: 38.6 µM
